Paper PMC7283026 (Neuro-Oncology, 2020)

Legend:
[1] = system: breast cancer resistance protein (BCRP); settings: cited from earlier work
mouse P-gp = mouse P-gp (Mus musculus, UniProt P21447); assay type: in vitro ADME; settings: LLC-PK1
P-gp = settings: cited from earlier work
TRKA/B/C = settings: read-out: IC50 against TRKA/B/C; cited from earlier work
[2] = Brain distribution study following i.v. bolus and i.v. infusion in rats; settings: rat; for δ brain concentration at SS / δ plasma concentration at SS: difference between the two time points, (SD)
[3] = cited from earlier work; for Cave,ss, reported clinical concentration: patients, efficacious dose
human P-gp = human P-gp (Homo sapiens, UniProt P08183); assay type: in vitro ADME; settings: LLC-PK1
Chain of human P-gp (P08183 whole entry): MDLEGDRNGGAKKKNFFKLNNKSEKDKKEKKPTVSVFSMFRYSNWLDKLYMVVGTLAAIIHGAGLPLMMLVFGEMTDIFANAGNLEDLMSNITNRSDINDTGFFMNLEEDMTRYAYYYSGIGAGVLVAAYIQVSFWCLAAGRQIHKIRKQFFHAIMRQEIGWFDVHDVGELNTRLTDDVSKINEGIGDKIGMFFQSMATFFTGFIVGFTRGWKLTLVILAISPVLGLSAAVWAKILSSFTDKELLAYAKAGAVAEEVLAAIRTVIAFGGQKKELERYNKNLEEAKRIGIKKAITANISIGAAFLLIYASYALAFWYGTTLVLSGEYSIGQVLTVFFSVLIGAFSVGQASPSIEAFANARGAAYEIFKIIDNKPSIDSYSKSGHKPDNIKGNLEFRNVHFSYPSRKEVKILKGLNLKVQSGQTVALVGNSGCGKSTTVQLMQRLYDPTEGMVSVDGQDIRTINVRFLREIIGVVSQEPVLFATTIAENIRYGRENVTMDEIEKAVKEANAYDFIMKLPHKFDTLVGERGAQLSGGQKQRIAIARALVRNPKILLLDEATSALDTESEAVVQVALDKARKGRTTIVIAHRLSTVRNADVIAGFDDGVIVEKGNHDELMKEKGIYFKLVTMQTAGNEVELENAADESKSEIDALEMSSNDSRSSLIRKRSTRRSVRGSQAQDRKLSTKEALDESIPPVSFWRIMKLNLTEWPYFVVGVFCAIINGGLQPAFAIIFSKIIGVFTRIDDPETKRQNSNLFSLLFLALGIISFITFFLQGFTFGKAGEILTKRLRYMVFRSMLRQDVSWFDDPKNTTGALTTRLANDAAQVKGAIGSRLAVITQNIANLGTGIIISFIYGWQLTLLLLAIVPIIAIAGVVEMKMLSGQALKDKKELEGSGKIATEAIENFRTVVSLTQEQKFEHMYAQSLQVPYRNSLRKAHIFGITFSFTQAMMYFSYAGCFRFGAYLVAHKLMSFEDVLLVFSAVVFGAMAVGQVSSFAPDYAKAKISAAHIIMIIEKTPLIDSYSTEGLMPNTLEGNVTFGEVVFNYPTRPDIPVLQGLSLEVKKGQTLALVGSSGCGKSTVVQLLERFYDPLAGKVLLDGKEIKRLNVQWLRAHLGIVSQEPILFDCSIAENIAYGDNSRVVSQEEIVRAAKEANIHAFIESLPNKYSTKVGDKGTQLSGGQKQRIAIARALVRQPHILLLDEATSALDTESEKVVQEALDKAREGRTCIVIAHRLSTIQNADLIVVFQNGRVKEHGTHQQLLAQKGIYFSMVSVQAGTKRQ

[4] = Kinetic lipid membrane binding assay; assay type: in vitro ADME, porcine; settings: pig, pH 7.4
[5] = rat plasma; from FDA pharmacology reviews; cited from earlier work
[6] = Plasma protein binding by equilibrium dialysis, human plasma; assay type: in vitro ADME; settings: pH 7.5
[7] = system: KM12-Luc intracranial tumor; assay: Efficacy in KM12-Luc intracranial tumor xenograft mouse model; assay type: in vivo, athymic nu/nu mice; settings: 28 days
BNN2 and BNN4 gliomas = settings: clinically relevant systemic exposures; cited from earlier work
[8] = Plasma protein binding, rat plasma; assay type: in vitro ADME; settings: pH 7.5
[9] = Plasma protein binding by equilibrium dialysis, mouse plasma; assay type: in vitro ADME; settings: pH 7.5
[10] = Single oral-dose in vivo PK study of rats; settings: rat
[11] = Plasma pharmacokinetics in KM12-Luc ITC tumor-bearing mice; assay type: in vivo, Balb/c nude mice; settings: for AUC(0-t): Balb/c nude, mouse, in vivo, po
[12] = recommended human oral dose of 600 mg/kg q.d.

Chain of mouse P-gp (P21447 whole entry): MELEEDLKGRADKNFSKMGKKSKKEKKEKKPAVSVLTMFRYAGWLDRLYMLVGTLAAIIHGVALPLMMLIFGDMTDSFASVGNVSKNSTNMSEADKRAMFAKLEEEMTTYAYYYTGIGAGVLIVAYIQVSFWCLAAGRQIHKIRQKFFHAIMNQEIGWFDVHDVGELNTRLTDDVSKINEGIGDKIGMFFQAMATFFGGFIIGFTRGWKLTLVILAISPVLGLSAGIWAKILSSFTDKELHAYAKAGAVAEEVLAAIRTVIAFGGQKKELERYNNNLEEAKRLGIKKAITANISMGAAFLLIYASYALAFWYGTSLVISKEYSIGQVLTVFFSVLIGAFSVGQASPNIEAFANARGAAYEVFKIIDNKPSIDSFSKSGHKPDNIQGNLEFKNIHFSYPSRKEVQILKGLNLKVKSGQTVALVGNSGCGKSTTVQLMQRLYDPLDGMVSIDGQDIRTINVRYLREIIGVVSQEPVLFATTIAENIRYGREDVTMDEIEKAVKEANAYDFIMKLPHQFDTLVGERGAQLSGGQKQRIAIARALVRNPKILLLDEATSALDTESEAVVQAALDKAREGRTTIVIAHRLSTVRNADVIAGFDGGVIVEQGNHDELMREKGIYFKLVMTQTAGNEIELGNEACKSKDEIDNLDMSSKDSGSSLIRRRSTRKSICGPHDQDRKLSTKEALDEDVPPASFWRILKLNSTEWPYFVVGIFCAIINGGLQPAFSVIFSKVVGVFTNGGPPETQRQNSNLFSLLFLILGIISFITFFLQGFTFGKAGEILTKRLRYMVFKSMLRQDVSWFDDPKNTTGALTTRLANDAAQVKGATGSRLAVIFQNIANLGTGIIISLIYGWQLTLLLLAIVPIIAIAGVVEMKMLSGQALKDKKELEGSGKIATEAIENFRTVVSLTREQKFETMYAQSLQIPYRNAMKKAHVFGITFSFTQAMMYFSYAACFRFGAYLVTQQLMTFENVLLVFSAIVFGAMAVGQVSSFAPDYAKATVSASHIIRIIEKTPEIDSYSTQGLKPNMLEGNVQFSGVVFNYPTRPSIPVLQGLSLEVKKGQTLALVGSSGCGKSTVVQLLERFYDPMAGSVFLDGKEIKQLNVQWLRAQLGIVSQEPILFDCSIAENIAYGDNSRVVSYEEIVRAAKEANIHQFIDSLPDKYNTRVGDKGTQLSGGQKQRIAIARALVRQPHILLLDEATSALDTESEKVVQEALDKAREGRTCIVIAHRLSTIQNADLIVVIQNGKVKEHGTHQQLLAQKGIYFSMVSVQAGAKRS

Q: Which “substrate of breast cancer resistance protein (BCRP)” value [1] does the source give for `O=C(Nc1cnn2ccc(N3CCC[C@@H]3c3cc(F)ccc3F)nc12)N1CC[C@H](O)C1` [Larotrectinib, larotrectinib] here?
A: substrate

Q: And the Papp A→B at 3.5 h, 1 µM (mouse P-gp)?
A: 0.82 ± 0.07 ×10⁻⁶ cm/s

Q: And the Papp B→A at 3.5 h, 1 µM (mouse P-gp)?
A: 16.1 ± 0.7 ×10⁻⁶ cm/s

Q: And the efflux ratio at 3.5 h, 1 µM (mouse P-gp)?
A: 20

Q: And the “known substrate for P-gp” value (P-gp)?
A: known substrates for P-gp

Q: What about the IC50 (TRKA/B/C) of the same compound?
A: 5 to 11 nM

Q: And the Kp at 4 h ([2]; male, Sprague Dawley, in vivo)?
A: 0.027

Q: What about the Kp at 5 h ([2]; male, Sprague Dawley, in vivo) of the same compound?
A: 0.031

Q: And the “δ brain concentration at SS” value [2]?
A: 1.6 (3.74–5.60) nM

Q: What about the “δ plasma concentration at SS” value [2] of the same compound?
A: 2 (46.3–82.2) nM

Q: And the “Cave,ss, reported clinical concentration” value [3]?
A: 423 nM

Q: And the Papp A→B at 3.5 h, 1 µM (human P-gp)?
A: 1.85 ×10⁻⁶ cm/s

Q: And the Papp B→A at 3.5 h, 1 µM (human P-gp)?
A: 18.2 ± 3.7 ×10⁻⁶ cm/s

Q: And the efflux ratio at 3.5 h, 1 µM (human P-gp)?
A: 10

Q: What about the half-life at 10 µM [4] of the same compound?
A: 6.2 min

Q: And the Fu in plasma [5]?
A: 0.349

Q: Which fraction unbound at 5 h [6] does the source give for `CN1CCN(c2ccc(C(=O)Nc3n[nH]c4ccc(Cc5cc(F)cc(F)c5)cc34)c(NC3CCOCC3)c2)CC1` [Entrectinib, entrectinib] here?
A: 0.0022 ± 0.0005

Q: What about the Papp A→B at 3.5 h, 1 µM (mouse P-gp) of the same compound?
A: 0.99 ± 0.04 ×10⁻⁶ cm/s

Q: What about the Papp B→A at 3.5 h, 1 µM (mouse P-gp) of the same compound?
A: 25.5 ± 1.9 ×10⁻⁶ cm/s

Q: What about the Kp at 5 h ([2]; male, Sprague Dawley, in vivo, Measured CSF/Cu,p ratio, 5 h) of the same compound?
A: 0.25

Q: And the Kp at 6 h ([2]; male, Sprague Dawley, in vivo, Measured CSF/Cu,p ratio, 6 h)?
A: 0.18

Q: And the “δ brain concentration at SS” value [2]?
A: 276 (71.2–186) nM

Q: And the “δ plasma concentration at SS” value [2]?
A: 140 (109–430) nM

Q: And the “δ brain concentration at SS” value ([2]; listed as entrectinib)?
A: 276 nM

Q: What about the “δ plasma concentration at SS” value ([2]; listed as entrectinib) of the same compound?
A: 140 nM

Q: And the “Cave,ss, reported clinical concentration” value [3]?
A: 2000 nM

Q: And the “AUC24h at SS in patients” value [3, 12]?
A: 48 µM·h

Q: And the “estimated average plasma concentration in patients” value [3, 12]?
A: approximately 2.0 µM

Q: What about the Papp A→B at 3.5 h, 1 µM (human P-gp) of the same compound?
A: 1.35 ± 0.34 ×10⁻⁶ cm/s

Q: What about the Papp B→A at 3.5 h, 1 µM (human P-gp) of the same compound?
A: 19.7 ± 0.5 ×10⁻⁶ cm/s

Q: What about the “Survival through day 28” value ([7]; 1 mg/kg b.i.d. oral) of the same compound?
A: 0%

Q: What about the “Survival through day 28” value ([7]; 5 mg/kg b.i.d. oral) of the same compound?
A: 11%

Q: And the “Survival through day 28” value ([7]; 10 mg/kg q.d. oral)?
A: 67%

Q: What about the “Survival through day 28” value ([7]; 15 mg/kg b.i.d. oral) of the same compound?
A: 100%

Q: What about the “Survival through day 28” value ([7]; 30 mg/kg q.d. oral) of the same compound?
A: 100%

Q: And the “Survival through day 28” value ([7]; 60 mg/kg b.i.d. oral)?
A: 100%

Q: And the Tolerability ([7]; all dose levels tested (1, 5, 15, 60 mg/kg b.i.d.; 10, 30 mg/kg q.d.))?
A: well tolerated

Q: And the half-life at 10 µM [4]?
A: 9.6 min

Q: And the “antitumor effect in intracranial NTRK1 fusion-positive glioma model” value (BNN2 and BNN4 gliomas)?
A: tumor growth inhibition and full survival benefit

Q: What about the fraction unbound at 5 h [8] of the same compound?
A: 0.0032 ± 0.0009

Q: What about the fraction unbound at 5 h [9] of the same compound?
A: 0.0034 ± 0.0003

Q: What about the Kp ([10]; brain / plasma, po, 20 mg/kg) of the same compound?
A: 0.185

Q: And the “concentration in the CSF” value ([10]; single oral dose 20 mg/kg, inferior to the LLOQ, data not shown)?
A: < 1 nM

Q: What about the AUC(0-t) ([11]; 2 mg/kg/day) of the same compound?
A: 1.3 µM·h

Q: What about the AUC(0-t) ([11]; 10 mg/kg/day) of the same compound?
A: 11.3 µM·h

Q: And the AUC(0-t) ([11]; 30 mg/kg)?
A: 24.5 to 54.8 µM·h

Q: And the AUC(0-t) ([11]; 30 mg/kg/day)?
A: 38.3 µM·h

Q: And the AUC(0-t) ([11]; 60 mg/kg/day)?
A: 45.3 µM·h

Q: What about the AUC(0-t) ([11]; 120 mg/kg/day) of the same compound?
A: 99.9 µM·h

Q: What about the “average plasma concentration (AUC24h/24 hours)” value ([11]; oral, daily dose of 30 mg/kg) of the same compound?
A: ~ 1.6 µM

Q: With `C[C@@H](Oc1cc(-c2cnn(C3CCNCC3)c2)cnc1N)c1c(Cl)ccc(F)c1Cl` [Crizotinib, crizotinib] as the compound, how does the Papp A→B at 3.5 h, 1 µM (mouse P-gp) read?
A: 1.2 ± 0.15 ×10⁻⁶ cm/s

Q: What about the Papp B→A at 3.5 h, 1 µM (mouse P-gp) of the same compound?
A: 34.4 ± 1.68 ×10⁻⁶ cm/s

Q: What about the “known substrate for P-gp” value (P-gp) of the same compound?
A: known substrates for P-gp

Q: What about the Kp at 5 h ([2]; male, Sprague Dawley, in vivo) of the same compound?
A: 0.041

Q: What about the Kp at 6 h ([2]; male, Sprague Dawley, in vivo) of the same compound?
A: 0.028

Q: And the “δ brain concentration at SS” value [2]?
A: 87 (12.1–131) nM

Q: What about the “δ plasma concentration at SS” value [2] of the same compound?
A: 12 (47.9–53.7) nM

Q: And the “Cave,ss, reported clinical concentration” value [3]?
A: 874 nM

Q: And the Papp A→B at 3.5 h, 1 µM (human P-gp)?
A: 1.38 ± 0.03 ×10⁻⁶ cm/s

Q: And the Papp B→A at 3.5 h, 1 µM (human P-gp)?
A: 38.8 ± 1.7 ×10⁻⁶ cm/s

Q: And the half-life at 10 µM [4]?
A: 7.4 min

Q: What about the Fu in plasma [5] of the same compound?
A: 0.057

Q: For `C[C@H]1O[C@@H](O[C@H]2[C@@H](O)C[C@H](O[C@H]3[C@@H](O)C[C@H](O[C@H]4CC[C@@]5(C)[C@H](CC[C@@H]6[C@@H]5C[C@@H](O)[C@]5(C)[C@@H](C7=CC(=O)OC7)CC[C@]65O)C4)O[C@@H]3C)O[C@@H]2C)C[C@H](O)[C@@H]1O` [Digoxin, digoxin], which Papp A→B at 3.5 h, 1 µM (mouse P-gp) is on record?
A: 1.22 ± 0.1 ×10⁻⁶ cm/s

Q: And the Papp B→A at 3.5 h, 1 µM (mouse P-gp)?
A: 12.5 ± 0.28 ×10⁻⁶ cm/s

Q: What about the efflux ratio at 3.5 h, 1 µM (mouse P-gp) of the same compound?
A: 10

Q: What about the Papp B→A at 3.5 h, 1 µM (human P-gp) of the same compound?
A: 12.1 ± 0.73 ×10⁻⁶ cm/s

Q: What about the efflux ratio at 3.5 h, 1 µM (human P-gp) of the same compound?
A: 11
